Measurements taken from patent US20060140970A1, “Proteic binding partners of TCTP and methods of modulating tumor reversion or cell apoptosis” (priority 2003, published 2006).

Assays:
293T HEK cells = assay: Polymerized tubulin fraction in cells, western blot anti-α-tubulin; type: cell-based
Method: […] The treated cells were rinsed twice in PBS, lyzed on plates with 250 μl of a microtubule-stabilizing buffer (20 mM Tris-HCl, pH 6.8, 140 mM NaCl, 0.5 % Nonidet P-40, 1 mM MgCl2, 2 mM EGTA, 4 μg/ml Taxol, protease inhibitors cocktail), scraped and transferred into a 1.5 ml microcentrifuge tube. Each plate was rinsed with a second 250 μl of lysis buffer, and the cell lysates were pooled. The lysis occurred for 20 minutes at room temperature. The microcentrifuge tubes containing 500 μl of lyzed cells contents were briefly mixed and then centrifuged at 14,000 rpm for 10 minutes at 4° C. Supernatants containing soluble tubulin were carefully separated from pellets containing polymerized tubulin and placed in a separate tube. The pellets were quickly rinsed with additional 20 μl of lysis buffer and resuspended in 125 μl of water. […] The concentration of proteins in the supernatants was measured by spectrophotometry at 595 nm (Bradford method). Using these soluble tubulin concentration values, 60 μg of the polymerized tubulin fractions were run on a 10% acrylamide gel (SDS-PAGE system) and transferred on a nitrocellulose membrane (Biorad) that was incubated with an anti-a-tubulin (Sigma) diluted 1/2000. Since TCTP overexpression lead to a decrease of OP18 phosphorylation, and consequently, contribute to the maintenance of OP18 in its active state, it was hypothesized that TCTP overexpression would induce the microtubule depolymerization. To confirm this hypothesis, an assay that enables the isolation and monitoring of the tubulin in a microtubule polymerized state only, but not in a free soluble state, was performed. Briefly, after lysis of cells in a hypotonic buffer containing low dose of Taxol (a microtubule stabilizing agent) and a centrifugation, the polymerized fraction of tubulin was preserved and purified. Then, the amount of polymerized tubulin in cells was monitored by western blot using an anti-α-tubulin antibody.

[1] = test system: OP18 phosphorylation in 293 HEK cells; assay: OP18 phosphorylation state, native PAGE and immunoblot; type: cell-based; settings: nocodazole 250 ng/ml, control cells
Method: Transfection, preparation of native OP18 enriched extracts, and analysis of OP18 phosphorylation levels. 293 T cells were transfected by the standard calcium phosphate method, with the following constructs: pEYFP (Clontech, BD) (negative control), pEYFP-TCTP wide type (WT) or the mutant pEYFP-TCTP S46A/S64A. Twenty four hours after the transfection, the cells were treated with nocodazole (250 ng/ml) for 0 hour, 1 hour, 2 hours, 4 hours and 8 hours, and rinsed twice in PBS. The pellets were lyzed with 3-5 volumes of lysis buffer (50 mM Tris-HCl, pH 7.5, 250 mM NaCl, 10 mM EDTA, 1% Nonidet P-40, protease inhibitors cocktail and phosphatases inhibitors (10 mM sodium orthovanadate, 10 mM natrium fluoride (NAF)) on ice for 20 minutes, and centrifuged for 10 minutes at 14,000 rpm at 4° C. The supernatants were carefully removed and stored on ice while measuring their concentration of proteins by spectrophotometry at 595 nm (Bradford method). To enrich the concentration of OP18 in the extracts, 1.2 mg of each total extract was boiled at 75° C. for 7 minutes, put on ice for 1 minute, and centrifuged for 10 minutes at 14,000 rpm at 4° C. Then, the supernatants were precipitated in 5-6 volumes of 1% sucrose in methanol O/N at −20° C. […]

Compound: COC(=O)Nc1nc2ccc(C(=O)c3cccs3)cc2[nH]1 [nocodazole]
- amount of polymerized tubulin (293T HEK cells; 16 hours of treatment, compared to untreated cells): no polymerized tubulin was present
- tubulin polymerization during nocodazole treatment (293T HEK cells; nocodazole 250 ng/ml, increasing time, transfected 293T HEK cells): decreased proportionally to the time length of treatment
- time from which OP18 with three (3-P) and four (4-P) phosphorylated sites is detectable [1]: ≥ 2 h
